Measurements as given in article PMC5374412, “Development of Pharmacophore Model for Indeno[1,2-b]indoles as Human Protein Kinase CK2 Inhibitors and Database Mining” (Pharmaceuticals, 2017).
pIC50: −log10 of the molar value.

Biological target: T1, human protein kinase CK2 (holoenzyme) (Homo sapiens, UniProt P68400)
T1 construct: gene CSNK2A1; CK2 holoenzyme, recombinant, expressed in E. coli; with CK2 regulatory subunit beta (CSNK2B), as part of the holoenzyme
Experiment: capillary electrophoresis-based kinase activity assay, peptide substrate RRRDDDSDDD
Assay type: biochemical

T1 sequence (P68400 whole entry): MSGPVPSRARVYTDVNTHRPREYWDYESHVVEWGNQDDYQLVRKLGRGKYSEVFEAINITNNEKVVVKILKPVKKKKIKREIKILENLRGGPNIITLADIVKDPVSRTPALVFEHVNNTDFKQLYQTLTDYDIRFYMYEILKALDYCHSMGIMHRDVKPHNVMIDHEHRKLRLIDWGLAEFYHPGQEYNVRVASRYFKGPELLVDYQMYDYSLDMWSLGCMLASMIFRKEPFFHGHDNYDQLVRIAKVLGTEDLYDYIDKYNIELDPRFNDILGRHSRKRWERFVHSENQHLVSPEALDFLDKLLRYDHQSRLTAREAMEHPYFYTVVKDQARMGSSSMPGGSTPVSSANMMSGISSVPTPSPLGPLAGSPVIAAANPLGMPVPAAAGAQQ
T1 sequence (P67870 2-215 partner): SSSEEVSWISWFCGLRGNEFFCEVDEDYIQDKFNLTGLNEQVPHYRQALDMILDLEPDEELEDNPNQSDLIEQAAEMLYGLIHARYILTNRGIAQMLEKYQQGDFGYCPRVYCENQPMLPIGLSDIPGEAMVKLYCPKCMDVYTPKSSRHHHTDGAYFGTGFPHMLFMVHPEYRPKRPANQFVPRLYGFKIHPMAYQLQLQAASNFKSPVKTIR

`COC1=CC(=O)c2c(c(O)c3oc4cc(OC)cc(C)c4c(=O)c3c2O)C1=O` [ZINC05765165, 6,11-dihydroxy-3,8-dimethoxy-1-methylbenzo[b]xanthene-7,10,12-trione] showed a pIC50 of 5.91.
